Test results from ChEMBL document CHEMBL4651402, “Screening of ~5500 FDA-approved drugs and clinical candidates for anti-SARS-CoV-2 activity” (2021).
Peptide text beside a SMILES is read from it.

Test system: SARS-CoV-2
Assay: microbe, parasite or virus in culture
Conditions: Severe acute respiratory syndrome coronavirus 2, Vero C1008, 48 h

SMILES	IC50 [µM]	IC50 (read-out: pIC50 (converted)) [µM]
CC(=O)Nc1ccc(C(=O)Nc2ccccc2N)cc1 [TACEDINALINE]	> 20	> 20
CC(NC(C)(C)C)C(=O)c1cccc(Cl)c1 (stereo not given) [BUPROPION]	> 20	> 20
CN1C[C@H]2C[C@@H]1CN2c1cc2c(cc1F)c(=O)c(C(=O)O)cn2C1CC1	> 20	> 20
c1ccc(C(CCN2CCCCCC2)c2ccccc2)cc1 [PROZAPINE]	> 20	> 20
CC(C)[C@H](N/C(=N\S(=O)(=O)c1ccc(Cl)cc1)N1C[C@H](c2ccccc2)C(c2ccc(Cl)cc2)=N1)C(N)=O	> 20	> 20
CNCC[C@@H](Oc1ccccc1C)c1ccccc1 [ATOMOXETINE]	> 20	> 20
C[C@H](N)[C@H](O)c1cccc(O)c1 [METARAMINOL]	> 20	> 20
CCCCCCCCN=c1ccn(CCCCCCCCCCn2ccc(=NCCCCCCCC)cc2)cc1 [OCTENIDINE]	> 20	> 20
COC(=O)N[C@H](C(=O)N[C@@H](Cc1ccccc1)[C@@H](O)CN(Cc1ccc(-c2ccccn2)cc1)NC(=O)[C@@H](NC(=O)OC)C(C)(C)C)C(C)(C)C [ATAZANAVIR]	> 20	> 20
Clc1ccc(C(OCCN2CCCCC2)c2ccccc2)cc1 (stereo not given) [CLOPERASTINE]	> 20	> 20
O=C(NCC1CCCCN1)c1cc(OCC(F)(F)F)ccc1OCC(F)(F)F (stereo not given) [FLECAINIDE]	> 20	> 20
CC(C)C[C@H](NC(=O)CNC(=O)[C@H](Cc1ccc(O)cc1)NC(=O)[C@H](CO)NC(=O)[C@H](Cc1c[nH]c2ccccc12)NC(=O)[C@H](Cc1cnc[nH]1)NC(=O)[C@@H]1CCC(=O)N1)C(=O)N[C@@H](CCCNC(=N)N)C(=O)N1CCC[C@H]1C(=O)NCC(N)=O [GONADORELIN]	> 20	> 20
N=C(N)Nc1ccc(C(=O)Oc2ccc3c(c2)OC[C@H]3CC(=O)N[C@@H](CC(=O)O)C(=O)O)cc1	> 20	> 20
COC(=O)Nc1nc2cc(C(=O)c3ccc(F)cc3)ccc2[nH]1 [FLUBENDAZOLE]	> 20	> 20
CC(C)(C)C(=O)C(Oc1ccc(Cl)cc1)n1cncn1 (stereo not given) [TRIADIMEFON]	> 20	> 20
CCC(=O)OC1(c2ccccc2)CCN(C)CC1	> 20	> 20
COc1ccc(CN(CCN(C)C)c2ccccn2)cc1 [PYRILAMINE]	> 20	> 20
Cc1c(CN2CCN(C(=O)[C@H](C)O)CC2)sc2c(N3CCOCC3)nc(-c3cnc(N)nc3)nc12 [APITOLISIB]	> 20	> 20
COc1cc(C(=O)O)ccc1NC(=O)[C@@H]1N[C@@H](CC(C)(C)C)[C@](C#N)(c2ccc(Cl)cc2F)[C@H]1c1cccc(Cl)c1F [IDASANUTLIN]	> 20	> 20
CNC1(c2ccccc2Cl)CCCCC1=O (stereo not given) [KETAMINE]	> 20	> 20
Cc1cc(OC(=O)c2c(C)cc(O)cc2O)cc(O)c1C(=O)O [LECANORIC ACID]	> 20	> 20
C[C@H](Cc1ccccc1)N(C)Cc1ccco1	> 20	> 20
O=C(c1ccc(Cl)cc1)n1cc(Cc2nnn[nH]2)c2ccccc21 [INTRAZOLE]	> 20	> 20
CCCCCCCCCCC(C)(C)C(=O)Nc1c(OC)cc(OC)cc1OC [CL-976]	> 20	> 20
CN1C(=O)CC2(CCN(CCCC(=O)c3ccc(F)cc3)CC2)C1=O [ROXOPERONE]	> 20	> 20

SMILES	IC50 [µM]	IC50 (read-out: pIC50 (converted)) [µM]
COC(=O)N/N=C/c1c[n+]([O-])c2ccccc2[n+]1[O-] [CARBADOX]	> 20	> 20
O=C(Nc1cccc2c(=O)cc(-c3nnn[nH]3)oc12)c1ccc(OCCCCc2ccccc2)cc1	> 100	> 100
CC(C)(C)NC(=O)[C@H]1CC[C@H]2[C@H]3CC[C@H]4NC(=O)C=C[C@]4(C)[C@H]3CC[C@]12C	> 20	> 20
CC(=O)N[C@@H](CC(=O)O)C(=O)N[C@@H](CCC(=O)O)C(=O)O [ISOSPAGLUMIC ACID] (Ac-Asp-Glu-OH)	> 20	> 20
c1ccc(OCc2ccc(CCCN3CCOCC3)cc2)cc1 [FOMOCAINE]	> 20	> 20
N/C=C1\Cc2ccccc2C1=O	> 20	> 20
CCCCc1nc(Cl)c(CO)n1Cc1ccc(-c2ccccc2-c2nnn[nH]2)cc1 [LOSARTAN]	> 20	> 20
Nc1c(Br)cc(Br)cc1CN[C@H]1CC[C@H](O)CC1 [AMBROXOL]	> 20	> 20
CC(=O)Nc1c(I)cc(I)c(C(=O)O)c1I [ACETRIZOIC ACID]	> 20	> 20
OC(CN1CCC(Cc2ccc(F)cc2)CC1)c1ccc(Cl)cc1 (stereo not given) [ELIPRODIL]	> 20	> 20
CN1C(=O)NC(=O)C(C)(C2=CCCCC2)C1=O (stereo not given) [HEXOBARBITAL]	> 20	> 20
O=C(CCCN1CCC(O)(c2cccc(C(F)(F)F)c2)CC1)c1ccc(F)cc1 [TRIFLUPERIDOL]	> 20	> 20
Cc1cccc(C)c1NC(=O)c1cc(S(N)(=O)=O)c(Cl)cc1O [XIPAMIDE]	> 20	> 20
CCC(O)C(CC(C)N(C)C)(c1ccccc1)c1ccccc1 (stereo not given) [DIMEPHEPTANOL]	> 20	> 20
CC1=Nc2ccc(Cl)cc2S(=O)(=O)N1 [DIAZOXIDE]	> 20	> 20
Cc1cc(C)c(Nc2ccnc(Nc3ccc(C#N)cc3)n2)c(C)c1 [DAPIVIRINE]	> 20	> 20
O=C(O[C@@H]1Cc2c(O)cc(O)cc2O[C@H]1c1cc(O)c(O)c(O)c1)c1cc(O)c(O)c(O)c1 [GALLOCATECHIN GALLATE]	> 20	> 20
CCC1(C2=NCCN2)Cc2ccccc2O1 (stereo not given) [EFAROXAN]	> 20	> 20
Cc1cccc(C(C)c2c[nH]cn2)c1C (stereo not given) [MEDETOMIDINE]	> 20	> 20
O=C(Oc1ccccc1C(=O)O)c1ccccc1O [SALSALATE]	> 20	> 20
C[n+]1cccc(C(=O)[O-])c1 [TRIGONELLINE]	> 20	> 20
OC1(c2ccc(Cl)cc2)c2ccccc2C2=NCCN21 (stereo not given) [MAZINDOL]	> 20	> 20
C=C(C)[C@H]1CN[C@H](C(=O)O)[C@H]1CC(=O)O [KAINIC ACID]	> 20	> 20
Cn1c(=O)c2c(ncn2CC(=O)O)n(C)c1=O [ACEFYLLINE]	> 20	> 20
Cc1cc(S(N)(=O)=O)ccc1NC(=O)COc1ccc(Cl)cc1C(=O)c1cc(Cl)cc(C#N)c1	> 20	> 20

SMILES	IC50 [µM]	IC50 (read-out: pIC50 (converted)) [µM]
CC(=O)OCC(=O)[C@@]1(O)CC[C@H]2[C@@H]3CCC4=CC(=O)C=C[C@]4(C)[C@@]3(Cl)[C@@H](Cl)C[C@@]21C [DICHLORISONE ACETATE]	> 20	> 20
O=C1CC2(CCCC2)CC(=O)N1CCCCN1CCN(c2ncccn2)CC1 [BUSPIRONE]	> 20	> 20
CN[C@@H](C)CC1CCCCC1 [LEVOPROPYLHEXEDRINE]	> 20	> 20
CC(=O)NC(CC(=O)O)C(=O)O (stereo not given)	> 20	> 20
C=CCNc1nc(NCC=C)nc(N2CCC(NCC(c3ccc(F)cc3)c3ccc(F)cc3)CC2)n1	> 20	> 20
CC12C=CC(=O)C=C1CCC1C2C(O)CC2(C)C1CCC2(O)C(=O)COC(=O)CCCc1ccc(N(CCCl)CCCl)cc1 (stereo not given)	> 20	> 20
Cn1c(=O)c2c(ncn2CC(O)CO)n(C)c1=O (stereo not given) [DYPHYLLINE]	> 20	> 20
CC1=CCC2C3Cc4ccc(O)c5c4C2(CCN3C)C1O5 (stereo not given)	> 20	> 20
C[C@@H]1CCC2[C@](C)(CO)[C@@H](O)CC[C@]2(C)[C@]12CCC(CO)(CCO)O2 (stereo not given in full)	> 20	> 20
C[C@]12CC[C@H](O)CC1=CC[C@@H]1[C@@H]2CC[C@]2(C)C(n3cnc4ccccc43)=CC[C@@H]12 [GALETERONE]	> 20	> 20
CCC1(CC)C(=O)NC(=O)NC1=O [BARBITAL]	> 20	> 20
CCN(CC)C(=O)c1ccc(O)c(OC)c1	> 20	> 20
C1CN1c1nc(N2CC2)nc(N2CC2)n1	> 20	> 20
C[N+](C)(C)CC(=O)O [BETAINE]	> 20	> 20
COc1ccc2c(c1)[C@H]1C[C@@]1(C(=O)N1C3CCC1CN(C)C3)Cn1c-2c(C2CCCCC2)c2ccc(C(=O)NS(=O)(=O)N(C)C)cc21	> 20	> 20
COc1cc(C)c2c(Oc3cccc(C(F)(F)F)c3)c(OC)cc(NC(C)CCCN)c2n1 (stereo not given) [TAFENOQUINE]	> 20	> 20
O=c1[nH]c(=O)n(C2CCCO2)cc1F (stereo not given) [TEGAFUR]	> 20	> 20
COC(=O)CCC(C)C1CCC2C3CC[C@@H]4C[C@H](O)CC[C@]4(C)C3C[C@H](O)[C@]12C (stereo not given in full)	> 20	> 20
CCn1ccc(NS(=O)(=O)c2ccc(N)cc2)nc1=O [SULFACYTINE]	> 20	> 20
O=C1Nc2ccc(Cl)cc2C(/C=C/C2CC2)(C(F)(F)F)N1 (stereo not given)	> 20	> 20
C/C(=C(\CCOP(=O)(O)O)SC(=O)c1ccccc1)N(C=O)Cc1cnc(C)nc1N [BENFOTIAMINE]	> 20	> 20
Nc1nc(OCc2cc(Br)cs2)c2[nH]cnc2n1 [LOMEGUATRIB]	> 20	> 20
CC(CCN1CCN(c2ccc(F)cc2)CC1)NC(=O)c1cccnc1 (stereo not given) [NIAPRAZINE]	> 20	> 20
CC(C)Oc1ccccc1N1CCN(Cc2cccc(C(=O)N3CCCCC3)c2)CC1 [MAZAPERTINE]	> 20	> 20
CCCCNc1c(C(=O)OCC)c(C)nc2c1cnn2CC [TRACAZOLATE]	> 20	> 20
